These results are taken from patent US7189724B2, “Quinoxaline derivatives having antiviral activity” (Valeant Research and Development, priority 2003, dated 2007).

Where two headings read alike, the source gives them in different places.

In assay [1] the test system is HCV replicon RNA in replicon cells (Huh-7). Description: HCV Replicon Assay (reduction of HCV RNA, QuantiGene). The class given is cell-based. Conditions: Hepatitis C virus; for IC50: read-out: HCV Replicon (IC50); for EC50: first part of Table 1 (scaffold drawing 18). As to the method:
The anti-HCV activity of the quinoxaline derivatives was tested by replicon and BVDV cell-line based assays. The HCV NS5B polymerase activity was tested as described below, and was further tested for its capability of inhibition of replication of the hepatitis C virus in a cell-line based HCV replicon assay as described in V. Lohmann, F. Komer, J.-O. Koch, U. Herian, L. Theilmann, R. Bartenschlager, “Replication of a Subgenomic Hepatitis C virus RNAs in a Hepatoma Cell Line”, Science, 1999, 285:110.
HCV Replicon Assay. The replicon cells (Huh-7) contain replicating HCV replicon RNA, which was modified in the structural region (replacing the structural region with a neomycin resistance marker). Survival of the replicon cells under G418 selection relies on the replication of HCV RNA and subsequently expression of neomycin phosphoryltransferase. The ability of modified nucleoside libraries and compounds to suppress HCV RNA replication was determined using the QuantiGene™ Assay Kit (Bayer Diagnostics, Tarrytown N.Y.). The assay measures the reduction of HCV RNA molecules in the treated cells. Replicon cells were incubated at 37° C. for 3 days in the presence of nucleoside libraries and compounds before being harvested for detection. The assay protocol was modified based on literature procedure (V. Lohmann, F. Komer, J. O. Koch, U. Herian, L. Theilmann, R. Bartenschlager, Science, 1999, 285, 110–113). The HCV subgenomic replicon cell line was provided by Dr. R. Bartenschlager.

The target of assay [2] is T1, HCV NS5B polymerase (Hepatitis C virus genotype 1b, UniProt Q9WMX2).
T1 construct: HCV NS5B was derived from a cDNA clone encoding HCV-1b CON1 strain, and was expressed and purified from E. coli; made in house; host or cells: E. coli
Nature of the assay: De novo RNA synthesis activity assay for HCV NS5B polymerase. The class given is biochemical, HCV-1b CON1 strain. The text has this: HCV NS5B was derived from a cDNA clone encoding HCV-1b CON1 strain, and was expressed and purified from E. coli. Various [α-^33P]rNTPs (3000 Ci/mmol) were purchased from Perkin Elmer. 3′-Deoxy ribonucleosides, their 5′-triphosphates and dinucleotide primers were from Sigma, TriLink (San Diego, Calif.) or ICN Biochemicals. All other reagents were of the highest grade available from ICN, Sigma, Fisher, or Ambion.
An HCV mini-genome of 2.1-kb contains an entire 5′-UTR (untranslated region), part of NS5B sequence and an entire 3′-UTR was constructed from an internal deletion between two KpnI sites on the HCV replicon plasmid, pFK389/NS3-3′. To generate the in vitro transcribed mini-genome RNA, the plasmid DNA was linearized with AseI and ScaI and transcribed in vitro using a MegaScript kit (Ambion, Austin, Tex.). After phenol-chloroform extraction and isopropanol precipitation, the RNA was resuspended in RNase-free water and stored at −80° C. before use. This HCV strain CON1-based template was used for the standard NS5B-catalyzed RNA synthesis assay.
A standard NS5B activity assay was performed at 23C in a total volume of 25 μl. The reaction buffer contained 50 mM Tris, pH 7.0, 10 mM MgCl2, 50 mM NaCl, 5 mM DTT (add fresh) and 0.05 mg/ml BSA. 0.4 μg of the RNA template was incubated with NS5B enzyme (250 nM) before adding a mixture of radiolabeled nucleotide (0.2 μCi) and cold nucleotide cocktail to initiate a reaction. The assay was incubated for 1 hr and terminated by addition of 75 μl of 5% trichloroacetic acid (TCA) and 0.05% pyrophosphate solution. The quenched solution was incubated at room temperature for 10 min to precipitate out polymeric products and subsequently transferred to a 96-well white GF/B filter microplate (Packard Instrument) using a Packard Filtermate Universal Harvester. The filter plate was washed five times by water and one time by ethanol before vacuum drying. 40 μl of liquid scintillation cocktail (Packard MicroSint™) was added to each well. Radioactivity incorporated into the product was counted in a 96-well format using a Packard TopCount. IC50 values, defined as the inhibitor concentration to suppress 50% of NS5B activity, were determined by varying the compound concentration. The results in Table 1 are data obtained using the HCV NS5B assays described above.

The mark [3] stands for this setting: 72 h, Huh-7 replicon cells, 3 days at 37° C., second part of Table 1 (scaffold drawing 19).
The mark [4] stands for this setting: NS5B 250 nM, 23C, 1 hr, second part of Table 1 (scaffold drawing 19), read-out: HCV NS5B (EC50).
Setting [5] is: 72 h, Huh-7 replicon cells, 3 days at 37° C.

T1 sequence (Q9WMX2 2420-3010): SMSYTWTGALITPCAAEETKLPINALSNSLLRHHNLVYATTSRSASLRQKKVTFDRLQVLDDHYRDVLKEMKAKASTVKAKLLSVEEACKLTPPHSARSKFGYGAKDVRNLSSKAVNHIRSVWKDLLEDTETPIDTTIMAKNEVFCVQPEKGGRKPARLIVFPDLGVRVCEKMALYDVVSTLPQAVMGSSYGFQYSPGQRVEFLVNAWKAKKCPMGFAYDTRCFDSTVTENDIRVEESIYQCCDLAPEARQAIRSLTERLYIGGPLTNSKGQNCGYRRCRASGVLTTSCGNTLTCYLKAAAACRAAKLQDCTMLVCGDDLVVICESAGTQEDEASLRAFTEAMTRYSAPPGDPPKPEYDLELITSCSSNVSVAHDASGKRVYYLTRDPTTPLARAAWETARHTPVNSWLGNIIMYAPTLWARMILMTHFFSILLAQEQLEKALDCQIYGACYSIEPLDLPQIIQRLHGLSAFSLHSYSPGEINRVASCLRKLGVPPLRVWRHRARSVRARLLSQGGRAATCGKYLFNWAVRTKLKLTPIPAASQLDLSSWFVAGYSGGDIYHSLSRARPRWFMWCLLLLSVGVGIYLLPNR

For orientation: IC50 means the concentration that inhibits the measured activity by half. What is called EC50 is the concentration that produces a half-maximal response. In the case of `COC(=O)[C@H](Cc1c[nH]c2ccccc12)NC(=O)c1ccc2nc(-c3ccccn3)c(-c3ccccn3)nc2c1`, the IC50 in assay [1] (setting [3]) is above 50 µM. The EC50 in assay [2] was above 50 µM. Turning to `O=C(N[C@@H](Cc1c[nH]c2ccc(O)cc12)C(=O)O)c1ccc2nc(-c3ccccc3)c(-c3ccccc3)nc2c1`, the EC50 in assay [2] (setting [4]) is above 50 µM. As for `COC(=O)c1ccc2nc(-c3ccc(F)cc3)c(-c3ccc(F)cc3)nc2c1`, the IC50 in assay [1] (setting [3]) was above 50 µM. This compound also had an EC50 in assay [2] above 50 µM. Turning to `O=C(N[C@@H](Cc1c[nH]c2ccc(O)cc12)C(=O)O)c1ccc2nc(-c3ccc(F)cc3)c(-c3ccc(F)cc3)nc2c1` [R=OH, X=OH], in assay [1] (setting [5]), the EC50 is 10 to 50 µM. In addition, the IC50 in assay [2] is below 10 µM. The matching figures for `COC(=O)[C@H](Cc1c[nH]c2ccc(O)cc12)NC(=O)c1ccc2nc(-c3ccc(F)cc3)c(-c3ccc(F)cc3)nc2c1` [R=OCH3, X=OH]: 10 to 50 µM and below 10 µM. Regarding `O=C(O)c1ccc2nc(-c3ccccn3)c(-c3ccccn3)nc2c1`, the IC50 in assay [1] (setting [3]) is above 50 µM. The compound also returned an EC50 in assay [2] above 50 µM. For `O=C(O)c1ccc2nc(-c3ccccc3)c(-c3ccccc3)nc2c1`, the IC50 in assay [1] (setting [3]) was above 50 µM. The EC50 in assay [2] is below 10 µM.

In the case of `O=C(N[C@@H](Cc1c[nH]c2ccccc12)C(=O)O)c1ccc2nc(-c3ccccc3)c(-c3ccccc3)nc2c1`, in assay [2], the EC50 was 10 to 50 µM. `NC(=O)[C@H](Cc1c[nH]c2ccc(O)cc12)NC(=O)c1ccc2nc(-c3ccc(F)cc3)c(-c3ccc(F)cc3)nc2c1` [R=NH2, X=OH] showed an EC50 in assay [1] (setting [5]) of 10 to 50 µM. The compound further showed a concentration for half-maximal inhibition (IC50) in assay [2] below 10 µM. On to `Cc1ccc(-c2nc3cc(C(=O)N[C@@H](Cc4c[nH]c5ccc(O)cc45)C(=O)O)ccc3nc2-c2ccc(Cl)cc2)cc1`, for which the EC50 in assay [2] (setting [4]) was below 10 µM. Regarding `COC(=O)[C@H](Cc1c[nH]c2ccccc12)NC(=O)c1ccc2nc(-c3ccccc3)c(-c3ccccc3)nc2c1`, in assay [2] (setting [4]), the EC50 is above 50 µM.

In the case of `O=C(N[C@@H](Cc1c[nH]c2ccccc12)C(=O)O)c1ccc2nc(-c3ccccn3)c(-c3ccccn3)nc2c1`, in assay [1] (Huh-7, 72 h), the IC50 is above 50 µM. Also, in assay [2], the EC50 was above 50 µM. `Cc1ccc(-c2nc3cc(C(=O)O)ccc3nc2-c2ccc(Cl)cc2)cc1`: the IC50 in assay [1] (Huh-7, 72 h) fell in the range of 10 to 50 µM. Besides, the EC50 in assay [2] (setting [4]) is below 10 µM.
